Experimental data taken from PMC8179567, “Target-templated de novo design of macrocyclic D-/L-peptides: discovery of drug-like inhibitors of PD-1” (Chemical Science, 2021).
Square brackets hold non-standard residues; d marks the D form. Peptide text beside a SMILES is read from it.

Assays:
[1] = target: T1, extracellular domain of human PD-1 (Homo sapiens, UniProt Q15116, C93S); test: Surface plasmon resonance (SPR), PD-1 immobilised on CM5 chip; format: binding; settings: analytes injected at 10, 100 and 1000 µM in PBS, 25 °C, PBS-T pH 7.4, reference channel subtracted; KD not calculable (fast kinetics, no saturation)
T1 construct: ectodomain of human PD-1 (aa 33- 150) was cloned into pET-24d; made in house
T1 sequence (Q15116 33-150 C93S limits assumed): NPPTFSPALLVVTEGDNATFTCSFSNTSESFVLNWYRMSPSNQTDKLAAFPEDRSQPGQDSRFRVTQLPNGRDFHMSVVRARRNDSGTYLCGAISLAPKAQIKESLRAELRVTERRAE
From the text: Seven de novo designed cyclic peptides were in total selected for experimental characterization (PD-i1-7). To this end, peptide chains were elongated on a Wang-linker modified polystyrene resin (anchoring through the Asp side-chain carboxylic acid). This chemical strategy enabled the head-to-tail cyclisation to be readily performed on-resin, and a final deprotection/cleavage step yielded the already cyclized final peptide (Scheme S1 ^†). To test for their bioactivity, the extracellular domain of human PD-1 was recombinantly expressed in E. coli and refolded from inclusion bodies. The purified protein was then immobilized by free amine coupling on a CM5 sensor chip surface, and surface plasmon resonance (SPR) measurements were performed. […] In particular, we selected microscale thermophoresis (MST) as it has been validated with this system[30] and allows the quantification of interactions in solution, which mimics physiological conditions. To this end, PD-1 was first fluorescently labelled and then titrated with increasing amounts of PD-i3 and PD-i6. […] Mutation of L-Trp, which serves as PD-1 anchor for the in silico design process, largely abolished binding to the target (Fig. S9A ^†). […]

[2] = target: T2, 15N-labelled PD-1 extracellular domain (Homo sapiens, UniProt Q15116, C93S); test: 1H,15N HSQC NMR mapping of interaction site; format: binding; settings: 15N-PD-1 60 µM, peptide 1 mM, 25 °C, pH 6.4; I/Io > 20% considered significant; residues adjacent to the CC′ loop
T2 construct: ectodomain of human PD-1 (aa 33- 150) was cloned into pET-24d; made in house
T2 sequence (Q15116 33-150 C93S limits assumed): as above
Experimental: To further elucidate the interaction site of PD-i3 and PD-i6, we expressed the extracellular domain of PD-1 uniformly labelled in ^15N and performed high-resolution NMR spectroscopy assays.
Microscale thermophoresis (MST)
MST was used to calculate the binding affinities in solution of PD-i3 and PD-i 6 for the extracellular domain of human PD-1. To this end, PD-1 was fluorescently labelled by reaction of the Lys side chains with Alexa-647-NHS (6 eq) for 3 h at 4 °C. The labelled protein was purified by size-exclusion chromatography and was diluted in PBS-T buffer (0.05% Tween 20, pH 7.4) to a final concentration of 10 nM. […]
#BE0193) as positive controls (Figure S). […] A reproducible and negative thermophoresis response was observed, which was baseline-corrected and normalized (ΔFnorm [‰]).The curves were analyzed using a standard Langmuir binding model, from which dissociations constants (K D) were determined. […]
ITC experiments were performed at 25 °C using a low-volume nano ITC calorimeter (TA instruments). […] Binding isotherms were analysed using the software provided by TA instruments, assuming a single binding site for the independent domains. […]
1H,15N HSQC spectra were recorded at 25 °C on a Bruker 600 MHz spectrometer equipped with a cryoprobe. […]
To assess the solution structures of PD-i3 and PD-i6, NMR spectra were recorded at 5 °C on a Bruker B800 MHz spectrometer equipped with a cryoprobe. […]

SMILES | SPR response on PD-1-functionalised channel [1] | Changes in PD-1 HSQC signal intensity on peptide addition [2]
CSCC[C@@H]1NC(=O)[C@H]([C@@H](C)O)NC(=O)[C@H](CC(=O)O)NC(=O)[C@H]2CCCN2C(=O)[C@H](Cc2ccc(O)cc2)NC(=O)[C@H](CCCNC(=N)N)NC(=O)[C@@H](CCCNC(=N)N)NC(=O)[C@@H](CCC(=O)O)NC(=O)[C@H](CC(C)C)NC(=O)[C@H](Cc2ccc(O)cc2)NC1=O [PD-i3] (cyclo(DTMYL[dE][dR]RY[dP])) | distinct concentration-dependent SPR responses | significant changes in signal intensity
CC(C)[C@@H]1NC(=O)[C@@H](Cc2c[nH]c3ccccc23)NC(=O)[C@H](Cc2c[nH]c3ccccc23)NC(=O)[C@H](CC(=O)O)NC(=O)[C@@H](CCCCN)NC(=O)[C@H](C)NC(=O)[C@H](CCC(=O)O)NC(=O)[C@H]2CCCN2C1=O [PD-i6] (cyclo(A[dK]DW[dW]V[dP]E)) | distinct concentration-dependent SPR responses | significant changes in signal intensity
